This is an account of results in patent US9790496B2, “Microrna compounds and methods for modulating MIR-21 activity” (Regulus Therapeutics, Inc., priority 2011, dated 2017).

The subject of one data set is miR-21. In words: miR-21 luciferase sensor assay in Hela cells. The data set is classed as cell-based. The following applies: for luciferase value normalized to beta-galactosidase activity / inhibition of miR-21 in the luciferase assay (in words): Hela cells. The protocol: The compounds were assessed for miR-21 inhibitory activity in a luciferase assay. A microRNA luciferase sensor construct was engineered using pGL3-MCS2 (Promega). The construct was introduced into Hela cells to test the ability of anti-miR compounds to inhibit activity of miR-21. In this assay, miR-21 present in the Hela cells binds to its cognate site(s) in the luciferase sensor construct, and suppresses luciferase expression. When the appropriate anti-miR is introduced into the cells, it binds to miR-21 and relieves suppression of luciferase expression. Thus, in this assay anti-miRs that are effective inhibitors of miR-21 expression will cause an increase in luciferase expression.
Day 1: Hela cells (ATCC), stably transfected with a luciferase construct engineered to contain a sequence complementary of miR-21, were seeded in T-170 flasks (BD Falcon) at 3.5*10^6 cells/flask. Hela cells were grown in Dulbecco's Modified Eagle Medium with High Glucose (Invitrogen).
Day 2: Each flask of Hela cells was transfected with 0.5 ug of a phRL sensor plasmid (Promega) expressing Renilla to be used in normalization. Hela cells were transfected using 20 ul Lipofectamine 2000/flask (Invitrogen). After 4 hours of transfection, cells were washed with PBS and trypsinized. Hela cells were plated at 40 k/well in 24 well plates (BD Falcon) and left overnight.
Day 3: Hela cells were transfected with anti-miRs using Lipofectin (Invitrogen) at 2.5 ul Lipofectin/100 nM ASO/ml Opti-MEM I Reduced Serum Medium (Invitrogen) for 4 hours. After ASO transfection, Hela cells were refed with Dulbecco's Modified Eagle Medium with High Glucose (Invitrogen).
Day 4: Hela cells are passively lysed and luciferase activity measured using the Dual-Luciferase Reporter Assay System (Promega).
The luciferase assay was performed to test the ability of anti-miRs with the nucleoside patterns described herein to inhibit the activity of miR-21. Results were compared to a ‘mock’ treatment, in which cells received no anti-miR treatment. The experiment was repeated and results of two experimental replicates are shown in the following Table B, as the luciferase value normalized to beta-galactosidase activity.
The luciferase assay was performed as described herein to test the ability of anti-miRs in Table F to inhibit the activity of miR-21. Results were compared to a ‘mock’ treatment, in which cells received no anti-miR treatment. The experiment was repeated and results of two experimental replicates are shown in the following Table D, as fold change in luciferase value relative to the mock treatment.

Data set [1] has as its system collagen 1A1 and collagen 3A1 expression in kidney, unilateral ureteral obstruction (UUO) model. Briefly: UUO model of kidney fibrosis: kidney collagen 1A1 and collagen 3A1 expression by real-time PCR. In kind it is in vivo, mice. How it is done: Unilateral ureteral obstruction (UUO) is a well-established experimental model of renal injury leading to interstitial fibrosis, and thus is used as an experimental model that is reflective of human kidney disease. UUO is induced by surgically ligating a single ureter. As fibrosis is characterized by an increase in collagen, the presence and extent of kidney fibrosis may be determined by measuring collagen content. Both collagen 1A1 (Col 1A1) and collagen 3A1 (Col 3A1) are measured to assess collagen content. Kidney fibrosis may be visualized by staining tissue samples with picro-sirius red to detect increases in collagen content. Kidney fibrosis may also be observed by measuring the amount of hydroxyproline, which is a major component of collagen, in a sample.
The cEt-containing anti-miR-21 compounds found to be active in the luciferase assay were tested in the UUO model of kidney fibrosis. 25919 comprising 2′-MOE and 2′-fluoro modifications is known to inhibit miR-21 activity in vivo and was included as a positive control. Groups of 8 animals each were treated as follows: UUO only, UUO with PBS, or UUO with anti-miR-21 compound. Relative to the day of the UUO procedure, PBS or anti-miR-21 compound was administered at days −3, −1, and +5. Anti-miR-21 compounds were administered at a dose of 20 mg/kg. As the anti-miR compounds were administered prior to the UUO procedure, this dosing regimen is considered a prophylactic treatment. At day 11, animals were sacrificed and kidney was isolated for measurement of collagen expression. Collagen expression was measured by real-time PCR and normalized first to GAPDH and then to the sham control animals. […]
In general terms: Real-time PCR tracks product formation cycle by cycle.

Setting [2] is: 4 nM oligonucleotide, mock transfection 50.
Setting [3] is: 20 nM oligonucleotide, mock transfection 47.
The mark [4] stands for this setting: 100 nM oligonucleotide, mock transfection 40.
Where [5] appears, read: 500 nM oligonucleotide, mock transfection 39.
The mark [6] stands for this setting: .16 nM oligonucleotide, mock transfection 45.
Where [7] appears, read: .8 nM oligonucleotide, mock transfection 33.
[8] abbreviates: concentration of anti-miR compound 0.2 (unit not given).
The mark [9] stands for this setting: concentration of anti-miR compound 0.6 (unit not given).
[10] abbreviates: concentration of anti-miR compound 1.9 (unit not given).
Where [11] appears, read: concentration of anti-miR compound 5.6 (unit not given).
The mark [12] stands for this setting: concentration of anti-miR compound 16.7 (unit not given).
[13] abbreviates: concentration of anti-miR compound 50.0 (unit not given).
Setting [14] is: UUO, 20 mg/kg at days -3, -1, +5 (prophylactic), kidney at day 11, real-time PCR normalized to GAPDH then sham, 20 mg/kg.

Where “and” joins values, the source holds several entries; their conditions need not be identical. Equal entries are not always repeated. Strand notation (5' to 3'): a small letter for the sugar, then the base; units joined by * are phosphorothioate-linked, units joined directly phosphodiester-linked; [ ] holds rarer units or linkages, { } end groups; capitals alone tell only the bases. e = 2'-O-(2-methoxyethyl) (MOE); l = locked nucleic acid (LNA); k = constrained ethyl (cEt); [5mC] = 5-methylcytosine; d = 2'-deoxy (DNA)

For the compound “Ae^MeCAST^MeCAGST^MeCTGASTASAGS^MeCTAe (ACATCAGTCTGATAAGCTA; all C 5-methyl, all phosphorothioate, sugars by position not given here; further chemistry not fully specified) [Compound 25071]”, the “luciferase value normalized to beta-galactosidase activity” value (“luciferase value normalized” below) in the data set with miR-21 (setting [2]) is listed as 50; with miR-21 (setting [3]), 63; in the data set on miR-21 (setting [4]), 53; in the data set on miR-21 (setting [5]), 42; in the data set on miR-21 (setting [6]) it was 48; with miR-21 (setting [7]), 36.
For “AE^MeCSAT^MeCSAGT^MeCSTGATSAAG^MeCSTAE (antisense ACATCAGTCTGATAAGCTA; modified nucleosides coded in name, code key not given here) [Compound 25922, 25070 variant: each cytosine is a 5-methyl cytosine]”, the “inhibition of miR-21 in the luciferase assay (in words)” value (“inhibition” for short) with miR-21 was “demonstrated inhibition of miR-21 in a dose-dependent manner”. In addition, the “fold change in luciferase value relative to the mock treatment” value is 1.02 with miR-21 (setting [8]); 1.10 in the data set on miR-21 (setting [9]); 1.34 in the data set with miR-21 (setting [10]); 8.81 in the data set with miR-21 (setting [11]); 11.60 in the data set with miR-21 (setting [12]); 11.46 with miR-21 (setting [13]).
Consider `CCCCC1=NC2(CCCC2)C(=O)N1Cc1ccc(-c2ccccc2-c2nnn[nH]2)cc1` [irbesartan, reference compound], for which the “reduction in Col3a1 expression (in words)” value in data set [1] (UUO comparison with irbesartan, 25070 s.c. 20 mg/kg days -5, -2, +3, irbesartan perorally daily days 0-7, day 10) is given as “statistically significant reductions”. In addition, the “reduction in Col1A1 expression relative to saline-treated animals (in words)” value in data set [1] (UUO comparison with irbesartan, 25070 s.c. 20 mg/kg days -5, -2, +3, irbesartan perorally daily days 0-7, day 10, p<0.05 one-way ANOVA) is listed as “did not yield a statistically significant reduction”.
As for “TE^MeCEAEAECSAETECSAEGETECSTEGEAEUSAEAEGECSTEAE (TCAACATCAGTCTGATAAGCTA; listed as DNA, chemistry not fully specified) [Compound 25068]”, in data set [1] (setting [14]), the “Collagen 1A1 (Normalized Expression), individual animal” value was 84.7 and 75.1 and 85.5 and 89.1 and 90.4 and 125.8 and 124.4. Besides, in data set [1] (setting [14]), the “Collagen 3A1 (Normalized Expression), individual animal” value is 64.8 and 56.2 and 47.4 and 76.2 and 57.0 and 63.0 and 59.6. The “luciferase value normalized” value is 64 in the data set on miR-21 (setting [2]); 86 in the data set on miR-21 (setting [3]); 97 in the data set on miR-21 (setting [4]); 45 in the data set on miR-21 (setting [6]); 54 with miR-21 (setting [7]). In addition, the “inhibition” value in the data set with miR-21 was “demonstrated inhibition of miR-21 in a dose-dependent manner”.
Regarding “AeTe^MeCeAeGeTe^MeCeTeGSAsTeASASGe^MeCeUSAS [Compound 25731]”, the “luciferase value normalized” value in the data set with miR-21 (setting [2]) worked out at 32; with miR-21 (setting [3]), 39; with miR-21 (setting [4]), 38; in the data set with miR-21 (setting [5]), 59; in the data set with miR-21 (setting [6]), 34; in the data set with miR-21 (setting [7]) it was 45.
With “AE^MeCSAETE^MeCSAEGETE^MeCSTEGEAE^MeTSAEAEGE^MeCSTEAE (antisense eA*k[5mC]*eA*eT*k[5mC]*eA*eG*eT*k[5mC]*eT*eG*eA*kT*eA*eA*eG*k[5mC]*eT*eA; further chemistry not given here) [Compound 25116, 25070 variant: each non-bicyclic nucleoside is 2'-MOE, each cytosine 5-methyl cytosine]”, the “fold change in luciferase value relative to the mock treatment” value in the data set with miR-21 (setting [8]) is 1.06; in the data set with miR-21 (setting [9]) it was 0.98; with miR-21 (setting [10]) it was 1.06; with miR-21 (setting [11]), 2.47; with miR-21 (setting [12]), 5.64; in the data set on miR-21 (setting [13]), 1.98.
Take “AE^MeCSAT^MeCSAGT^MeCSTGATSAAG^MeCSTAS (antisense eA*k[5mC]*dA*dT*k[5mC]*dA*dG*dT*k[5mC]*dT*dG*dA*kT*dA*dA*dG*k[5mC]*dT*kA) [Compound 25924, 25070 variant: 3'-terminal cEt nucleoside and each cytosine is a 5-methyl cytosine]”: the “inhibition” value in the data set with miR-21 was “demonstrated inhibition of miR-21 in a dose-dependent manner”. Besides, the “fold change in luciferase value relative to the mock treatment” value is reported as 1.10 in the data set on miR-21 (setting [8]); 1.25 in the data set with miR-21 (setting [9]); 1.37 in the data set with miR-21 (setting [10]); 7.80 in the data set with miR-21 (setting [11]); 13.01 with miR-21 (setting [12]); 8.99 in the data set on miR-21 (setting [13]).
Regarding “AeTe^MeCeASGSTe^MeCeTeGSASTeAeASGS^MeCeTeAe [Compound 25077]”, the “luciferase value normalized” value is reported as 45 in the data set with miR-21 (setting [2]); 33 with miR-21 (setting [3]); 42 with miR-21 (setting [4]); 40 in the data set with miR-21 (setting [5]); 34 in the data set on miR-21 (setting [6]); 33 in the data set with miR-21 (setting [7]).
For “AE^MeCLAETE^MeCLAEGETE^MeCLTEGEAE^MeTLAEAEGE^MeCLTEAE (antisense eA*l[5mC]*eA*eT*l[5mC]*eA*eG*eT*l[5mC]*eT*eG*eA*lT*eA*eA*eG*l[5mC]*eT*eA) [Compound 25117, LNA variant: each non-bicyclic nucleoside is 2'-MOE, each cytosine 5-methyl cytosine]”, the “fold change in luciferase value relative to the mock treatment” value with miR-21 (setting [8]) was found to be 1.05; in the data set with miR-21 (setting [9]) it was 1.15; with miR-21 (setting [10]), 1.14; in the data set with miR-21 (setting [11]), 3.64; with miR-21 (setting [12]), 7.36; in the data set on miR-21 (setting [13]), 2.91.
As to “Te^MeCASA^MeCAST^MeCAGST^MeCTGASTAAGS^MeCTAe (antisense TCAACATCAGTCTGATAAGCTA; all C 5-methyl, all phosphorothioate, sugars by position not given here; further chemistry not fully specified) [Compound 25067]”, the “luciferase value normalized” value in the data set on miR-21 (setting [2]) stood at 43; in the data set on miR-21 (setting [3]) it was 41; with miR-21 (setting [4]) it was 30; in the data set with miR-21 (setting [5]) it was 42; with miR-21 (setting [6]) it was 38; in the data set with miR-21 (setting [7]), 23.
